The test deals with Trypanosoma brucei growth inhibition. Put plainly: T. brucei growth inhibition (AID 1159557).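 Also: parasites exposed to compound for 48 h before the resazurin readout.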

SMILES strings stand for the structures. Calls of active or inactive are those of the source. No rule for the calls is given here.

As to `CN(CC1CCCO1)S(=O)(=O)c1ccc(C(=O)Nc2nc(-c3ccccn3)cs2)cc1` (stereo unspecified), the 50% inhibitory concentration (IC50) is 0.5 µM.
The value for `Cc1ccc(S(C)(=O)=O)cc1Nc1nccc(-c2sc(N)nc2-c2ccccc2)n1` was 0.79 µM.
Regarding `CC(=O)Nc1nc(-c2cc(C)ccc2C)c(C)s1`, the IC50 is > 40 µM (inactive).
Turning to `Cc1ccccc1NS(=O)(=O)c1ccc2[nH]cc(C(=O)NC3CCCCC3)c(=O)c2c1`, the IC50 was 0.25 µM.
On to `NC(=O)c1cc(F)ccc1Nc1nc(NC2CCC(O)CC2)ncc1Br` (stereo unspecified), for which the IC50 is 0.079 µM.
In the case of `CS(=O)(=O)c1ccc(CC(=O)Nc2nc(-c3ccc(Cl)s3)cs2)cc1` it was 10 µM.
In the case of `Cc1[nH]nc(-c2nc3ccccc3[nH]2)c1C(=O)NC1CCCNC1` (stereo unspecified) it was 0.4 µM.
Consider `COc1ccc(-c2cnc(NC(=O)c3ccc(F)cc3)n2C)cc1`, for which the IC50 was 1.3 µM.
The value for `O=C(Cn1cnc([N+](=O)[O-])n1)Nc1ccc(Cl)cc1C(=O)c1ccccc1` was 20 µM; that for `COc1ccc(CNc2cc(C3CC3)nc(-c3nccn3C)n2)cc1` was 1.3 µM.
The value for `Fc1ccc(OC2CC(NCc3cccc4cn[nH]c34)C2)cc1C(F)(F)F` (stereo unspecified) was 7.9 µM.
On to `COc1ccccc1-n1c(SCC(=O)Nc2ccc3c(c2)OCO3)nc2c(c1=O)SCC2`, for which the IC50 is > 40 µM (inactive).
On to `CCc1c(C)nc(-n2nc(C)cc2NC(=O)COc2ccccc2F)[nH]c1=O`, for which the IC50 is 0.16 µM.
In the case of `Cc1nn(C2CCS(=O)(=O)C2)c(C)c1CN(C)C(=O)C=Cc1sc2ccccc2c1Cl` (stereo unspecified) it was 10 µM; in that of `O=c1ccn(-c2ccc([N+](=O)[O-])cc2Cl)c2ccc(F)cc12`, 25 µM.
In the case of `O=C(NCC(c1cccnc1)N1CCc2ccccc2C1)C(=O)Nc1cccc(Cl)c1` (stereo unspecified) it was 16 µM; in that of `COc1ccc(-c2csc(NC(=O)c3ccc([N+](=O)[O-])s3)n2)cc1OC`, 0.13 µM; in that of `Fc1ccc(Nc2nc(-c3ccccn3)cs2)cc1`, 25 µM.
In the case of `Cc1nc(N2CC(C)OC(C)C2)sc1C(=O)Nc1ccc2c(c1)OCO2` (stereo unspecified) it was 40 µM; in that of `COc1ccc2nccc(NC(=O)C3(OC)CCN(CC(O)c4ccc5c(c4)OCCO5)CC3)c2n1` (stereo unspecified), 0.4 µM; in that of `COc1cc(C(C)C)c(S(C)(=O)=O)cc1C(=O)N1CCN(c2ccccc2Cl)CC1`, 25 µM.
As to `CN1CCN(c2nc(-c3ccc(Cl)cc3)c3c(N)n(C)nc3n2)CC1`, the IC50 was 13 µM.
In the case of `COc1ccc(NS(=O)(=O)c2cc(NC(=O)Cc3ccc(C)cc3)ccc2N2CCOCC2)cc1` it was 5 µM.
The value for `COc1ccc(S(=O)(=O)NC(C)C)cc1Nc1ncc(-c2cccc(F)c2)cn1` was 20 µM; that for `CCOc1ccc(OCC(=O)N2c3ccccc3CC2C(=O)NC)cc1` (stereo unspecified) was 0.5 µM; that for `COc1ccccc1C=CCN1C[C@H]2CCC[C@@H](C1)C2(O)c1cccnc1` (stereo partly specified) was > 40 µM (inactive).
In the case of `CC(CCc1ccccc1)NC(=O)CN(Cc1ccccn1)Cc1ccccn1` (stereo unspecified), the IC50 was 10 µM.
In the case of `Cc1ccccc1NS(=O)(=O)c1ccc2[nH]cc(C(=O)NC3CCCC3)c(=O)c2c1` it was 0.32 µM; in that of `O=C(Nc1nc2ccccc2[nH]1)c1c(O)c2cccc3c2n(c1=O)CC3`, 16 µM; in that of `COc1ccc2ncc(=O)n(CCN3CC[C@H](NCc4ncc(Cl)c5[nH]ncc45)[C@H](O)C3)c2n1`, 0.32 µM.
The value for `O=C(CCCn1cnc([N+](=O)[O-])n1)Nc1cccc(Cl)c1` was 5 µM; that for `O=C(NCc1ccc(-n2cccc2)cc1)c1nc(Cn2ccc([N+](=O)[O-])n2)no1` was > 40 µM (inactive).
The value for `O=C(NCC(c1cccs1)N1CCOCC1)c1ccc([N+](=O)[O-])o1` (stereo unspecified) was 0.32 µM; that for `Cc1ccc(NC(=O)c2ccnc(N3CCCC3)c2)cc1-c1ccsc1C(N)=O` was 0.063 µM.
Regarding `COc1ncc(-c2ccc3ncnc(N4CCOCC4)c3c2)cc1NS(C)(=O)=O`, the IC50 was 0.32 µM.
The value for `COc1ccc(C2CC(c3ccc(NS(C)(=O)=O)cc3)=NN2C(=O)c2cccs2)cc1OC` (stereo unspecified) was 16 µM; that for `Cc1cn[nH]c1C1CCCN(Cc2nc3ccccc3n2C)C1` (stereo unspecified) was 6.3 µM.
The value for `CN(Cc1ccc(F)cc1)c1ccc(OCC(=O)N2CCCCC2c2cccnc2)nn1` (stereo unspecified) was > 40 µM (inactive); that for `COc1ccc(CN2C(=O)C(O)(CC(=O)c3ccncc3)c3cc(Br)ccc32)cc1OC` (stereo unspecified) was 0.63 µM.
The value for `N#Cc1c(Oc2cccc(Cl)c2)cccc1[N+](=O)[O-]` was 0.0079 µM; that for `Cc1cc(Nc2ccc(C#N)c(Cl)c2C)n[nH]1` was 0.0079 µM; that for `O=C(NCCc1ccccc1Cl)c1cccn1-c1cccnc1` was 32 µM.
Turning to `Cc1cc2nc(CN(C)Cc3ncccc3C)[nH]c2cc1C`, the IC50 was 0.63 µM.
In the case of `O=C(Nc1nc(-c2ccccn2)cs1)c1ccc(S(=O)(=O)N2CCCCC2)cc1` it was 0.4 µM.
With `COc1cccc(C(=O)[C@H]2C[C@@H]2CN(Cc2cccnc2)Cc2cccnc2)c1`, the half-maximal inhibitory concentration (IC50) was 32 µM.
In the case of `Cc1cnc(Nc2cc(Cc3ccccc3)nc(NC3CCC(O)CC3)n2)s1` (stereo unspecified) it was 0.025 µM; in that of `CC(C(=O)Nc1ccccc1F)N(C)CC(=O)Nc1cccc2ccccc12` (stereo unspecified), 25 µM; in that of `Cc1cc2nc(N3CC[C@H]3C(N)=O)nc(Nc3cc(C4CC4)[nH]n3)c2s1`, 0.079 µM.
In the case of `Cc1cc(C)nc(N2CCC(N(Cc3cccnc3)C(=O)c3cccc(C#N)c3)CC2)n1` it was > 40 µM (inactive); in that of `O=C(CCc1ccc(-c2ccccc2)o1)N1CCN(c2ccc(O)cc2)CC1`, 25 µM; in that of `Cc1nn(C)c(Cl)c1CN(Cc1cccnc1)Cc1ccsc1`, > 40 µM (inactive).
For `CCC1Oc2cc(S(=O)(=O)N(C)CC(=O)N3CCc4ccccc4C3)c(C)cc2NC1=O` (stereo unspecified), the IC50 was 25 µM.
In the case of `COc1ccc(-c2cc(C)no2)cc1S(=O)(=O)Nc1ccc(F)c(Cl)c1`, the IC50 is 16 µM.
In the case of `Cc1ccc(-c2csc(NC(=O)C=Cc3ccc(S(=O)(=O)N4CCOCC4)cc3)n2)o1` it was 3.2 µM; in that of `COc1ccc(C(C)N(C)c2ncc3c(N)nc(N)nc3n2)cc1F` (stereo unspecified), 13 µM.
The value for `CC(C)Oc1cccc(N2CCC(C(=O)N3CCCN(C(C)C)CC3)CC2)c1` was > 40 µM (inactive); that for `COc1cc2c(cc1OC)[C@H]1[C@@H](C)c3ccc(OC)c(OC)c3CN1CC2` was 25 µM; that for `CS(=O)(=O)NC1CCC(Nc2ncc(Br)c(Nc3ccccc3C(N)=O)n2)CC1` (stereo unspecified) was 0.16 µM.
For `O=C(NCCNc1noc(-c2ccc([N+](=O)[O-])cc2)n1)c1ccc(Cl)cc1`, the IC50 is 3.2 µM.
The value for `O=C(Nc1nc(-c2ccc(S(=O)(=O)N3CCOCC3)cc2)cs1)c1ccc([N+](=O)[O-])cc1` was 4 µM; that for `Cc1nc(-c2ccc3c(c2)OCO3)sc1C(=O)NCc1ccc2c(c1)OCO2` was 10 µM.
The value for `Cc1[nH]n2c(=O)c3c(nc2c1-c1ccc(F)cc1)CCCC3` was 0.4 µM; that for `C[C@@H](Oc1cc(-n2cnc3ccc(CC(O)CO)cc32)sc1C(N)=O)c1ccccc1Cl` (stereo partly specified) was 0.63 µM.
The value for `CC1CN(S(=O)(=O)c2ccc(NC(=O)c3cc(C4CC4)nc4c3cnn4C(C)C)cc2)CC(C)O1` (stereo unspecified) was 6.3 µM.
In the case of `Cn1nccc1NC(=O)Cn1ccc(-c2ccncc2)n1`, the IC50 was 0.63 µM.
In the case of `NC(=O)c1ccccc1Nc1nc(NC2CCCCC2)nc2[nH]ccc12` it was 0.5 µM.

For orientation: IC50 means the concentration needed to halve the response being measured.
